Where two headings read alike, the source gives them in different places.

The subject of experiment [1] is adenosine uptake into HeLa cells. Kind of experiment: [3H]Adenosine uptake assay in HeLa cells. The format is cell-based. To be noted: [3H]adenosine accumulation in HeLa cells, compound range 10 μM to 0.032 nM, read-out: ADU inhibition IC50. In short, it runs like this: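 IC50 came from a 4-parameter fit of counts per second over a ten-point, 1:3 titration (final 10 µM down to […]). Compound was applied 30 min at ambient temperature in HBSS/5% FBS before a 500 nM [3H]adenosine solution was added; uptake ran 60 min, read by Cytostar-T proximity scintillation.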

The target of experiment [2] is BTK enzyme (recombinant full-length BTK, hBTK) (Homo sapiens (Human), UniProt Q06187). Kind of experiment: BTK enzymatic activity LANCE TR-FRET assay. To be noted: 50 pM hBTK, 25 μM ATP, 2 μM biotin-A5-peptide; compound range 1 μM to 0.017 nM; read-out: BTK binding IC50. It is filed as biochemical.
Sequence of BTK enzyme (recombinant full-length BTK, hBTK) (Q06187 whole entry): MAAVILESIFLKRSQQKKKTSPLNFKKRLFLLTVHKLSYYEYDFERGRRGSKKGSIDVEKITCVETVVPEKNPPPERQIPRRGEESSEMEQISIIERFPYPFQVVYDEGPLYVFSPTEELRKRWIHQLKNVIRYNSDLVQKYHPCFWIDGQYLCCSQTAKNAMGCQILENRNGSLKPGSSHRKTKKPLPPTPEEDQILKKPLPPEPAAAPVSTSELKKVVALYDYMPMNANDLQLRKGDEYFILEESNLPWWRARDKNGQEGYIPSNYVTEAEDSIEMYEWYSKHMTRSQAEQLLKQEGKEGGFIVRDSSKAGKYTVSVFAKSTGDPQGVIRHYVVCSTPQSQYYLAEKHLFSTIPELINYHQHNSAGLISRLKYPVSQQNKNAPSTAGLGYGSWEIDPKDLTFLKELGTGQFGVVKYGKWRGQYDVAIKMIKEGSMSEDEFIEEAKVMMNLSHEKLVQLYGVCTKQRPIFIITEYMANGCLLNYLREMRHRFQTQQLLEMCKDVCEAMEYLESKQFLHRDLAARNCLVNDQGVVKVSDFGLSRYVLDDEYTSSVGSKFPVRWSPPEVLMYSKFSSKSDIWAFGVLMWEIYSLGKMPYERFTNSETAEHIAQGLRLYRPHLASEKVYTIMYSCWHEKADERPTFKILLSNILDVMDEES

As to `C[C@@](O)(c1cccc(C(F)(F)F)c1)c1ccc(-c2nc([C@@H]3CC[C@H]4CCC(=O)N4C3)n3ccnc(N)c23)c(F)c1` [Example 102, (6R,8aS)-6-[8-amino-1-(2-fluoro-4-{(1R)-1-hydroxy-1-[3-(trifluoromethyl)phenyl]ethyl}phenyl)imidazo [1,5-a]pyrazin-3-yl]hexahydroindolizin-3(2H)-one], the IC50 in experiment [1] (Homo sapiens, HeLa) stood at 1680 nM; in experiment [2], 1.6 nM.
On the same counts, the results for `Cc1cc([C@@](C)(O)c2cccc(C(F)(F)F)c2)ccc1-c1nc([C@@H]2CC[C@H]3CCC(=O)N3C2)n2ccnc(N)c12` [Example 103, (6R,8aS)-6-[8-amino-1-(4-{(1R)-1-hydroxy-1-[3-(trifluoromethyl)phenyl]-ethyl}-2-methylphenyl)imidazo [1,5-a]pyrazin-3-yl]hexahydroindolizin-3(2H)-one] are 487 nM and 1000 nM.
On the same counts, the results for `Cc1cc([C@](C)(O)c2cccc(C(F)(F)F)c2)ccc1-c1nc([C@@H]2CC[C@H]3CCC(=O)N3C2)n2ccnc(N)c12` [Example 104, (6R,8aS)-6-[8-amino-1-(4-{(1S)-1-hydroxy-1-[3-(trifluoromethyl)phenyl]ethyl}-2-methylphenyl)imidazo [1,5-a]pyrazin-3-yl]hexahydroindolizin-3(2H)-one] are 1700 nM and 10.7 nM.
As for `CC(O)(c1cccc(C(F)(F)F)c1)c1ccc(-c2nc([C@@H]3CC[C@H]4CCC(=O)N4C3)n3ccnc(N)c23)c(C(F)(F)F)c1` (stereo partly drawn) [Example 105, (6R,8aS)-6-{8-amino-1-[4-{1-hydroxy-1-[3-(trifluoromethyl)phenyl]ethyl}-2-(trifluoromethyl)phenyl]imidazo[1,5-a]pyrazin-3-yl}hexahydroindolizin-3(2H)-one], the half-inhibitory concentration (IC50) was found to be 861 nM in experiment [1] (Homo sapiens, HeLa) and 1000 nM in experiment [2].
On the same counts, the results for `Nc1nccn2c([C@@H]3CC[C@H]4CCC(=O)N4C3)nc(-c3ccc([C@@](O)(CO)c4cccc(C(F)(F)F)c4)cc3)c12` [Example 106, (6R,8aS)-6-[8-amino-1-(4-{(1S)-1,2-dihydroxy-1-[3-(trifluoromethyl)phenyl]ethyl}phenyl)imidazo [1,5-a]pyrazin-3-yl]hexahydroindolizin-3(2H)-one] are 6970 nM and 153 nM.
On the same counts, the results for `Nc1nccn2c([C@@H]3CC[C@H]4CCC(=O)N4C3)nc(-c3ccc([C@](O)(CO)c4cccc(C(F)(F)F)c4)cc3)c12` [Example 107, (6R,8aS)-6-[8-amino-1-(4-{(1R)-1,2-dihydroxy-1-[3-(trifluoromethyl)phenyl]ethyl}phenyl)imidazo [1,5-a]pyrazin-3-yl]hexahydroindolizin-3(2H)-one] are 530 nM and 939 nM.
As to `Nc1nccn2c([C@@H]3CC[C@H]4CCC(=O)N4C3)nc(-c3ccc(C(O)(c4cccc(C(F)(F)F)c4)C(F)F)cc3)c12` (stereo partly drawn) [Example 108, (6R,8aS)-6-[8-amino-1-(4-{2,2-difluoro-1-hydroxy-1-[3-(trifluoromethyl)phenyl]ethyl}phenyl)imidazo [1,5-a]pyrazin-3-yl]hexahydroindolizin-3(2H)-one], the values for the IC50 in experiment [1] and in experiment [2] were 467 nM and 678 nM, respectively.
For the compound `CC(C)(c1cccc([C@@](C)(O)c2ccc(-c3nc([C@@H]4CC[C@H]5CCC(=O)N5C4)n4ccnc(N)c34)cc2)c1)C(F)(F)F` [Example 109, (6R,8aS)-6-[8-amino-1-(4-{(1S)-1-hydroxy-1-[3-(2,2,2-trifluoro-1,1-dimethylethyl)phenyl]ethyl}phenyl)imidazo[1,5-a]pyrazin-3-yl]hexahydroindolizin-3(2H)-one], the IC50 came to 892 nM in experiment [1] (Homo sapiens, HeLa) and 44.9 nM in experiment [2].
On the same counts, the results for `CC(C)(c1cccc([C@](C)(O)c2ccc(-c3nc([C@@H]4CC[C@H]5CCC(=O)N5C4)n4ccnc(N)c34)cc2)c1)C(F)(F)F` [Example 110, (6R,8aS)-6-[8-amino-1-(4-{(1R)-1-hydroxy-1-[3-(2,2,2-trifluoro-1,1-dimethylethyl)phenyl]ethyl}phenyl)imidazo[1,5-a]pyrazin-3-yl]hexahydroindolizin-3(2H)-one] are 1700 nM and 0.95 nM.

The values above are taken from patent publication US10214546B2, “Btk inhibitors” (MERCK SHARP & DOHME CORP., priority 2014, dated 2019).
